Where a name gives a salt, the structure may show the parent alone.
How the values were obtained:
[1] = test system: depressant effects which are induced in mice by tetrabenazine; assay: blocking the depressant effects induced in mice by intravenous tetrabenazine (modification of Englehardt et al.); assay type: in vivo; settings: Mus musculus, IP
Description: The activity of the compounds was determined by their administration intraperitoneally to mice and their effectiveness in blocking the depressant effects which are induced in mice by the intravenous administration of 2-oxo-3-insobutyl-9,10-dimethoxy-1,2,3,4,6,7-hexahydro-11bh-benzo[a]quinolizine (tetrabenazine). The procedure used was a modification of Englehardt, E. L. et al, J. Med. Chem. 11 (2), 325(1968). The ED50 values of the compounds are given in Table I; the compounds of Examples 3, 5, 7 and 8 are the preferred compounds.

mice = assay: analgesic activity in mice, modification of Nilsen's method; assay type: in vivo; settings: Mus musculus, ip; administered intraperitoneally to mice; read-out: ED50 analgetic dose
Description: The analgesic activity of the 1-cyclopropyl-1-alkanoyloxy-1-phenyl-ω-amino alkane compounds of this invention were determined by a modification of Nilsen's method [Funderburk, W. H., et al, Arch. Int.

**Q.** How did the ED50 [1] turn out when CCC(=O)OC(CCN(C)C)(c1ccccc1)C1CC1 (centres unmarked) [Example 10, 1-Cyclopropyl-3-dimethylamino-1phenyl-1-propionyloxypropane Hydrochloride] was run?
**A.** 7.7 mg/kg

**Q.** And the ED50 (mice)?
**A.** 14.2 mg/kg
